Measurements published in paper PMC11841054 (Journal of Bacteriology, 2025).

Legend:
GlnA3Sc = target: T1, GlnA3Sc (Streptomyces coelicolor, UniProt Q9KZC7); assay: GS activity assay, phosphate release; assay type: biochemical; conditions: 50 mM substrate; glutamate and ATP co-substrates
T1 construct: gene glnA3; His-tagged (pYT/his-glnA3, pYT9 derivative) from E. coli BL21

GlnA3Mt = target: T2, GlnA3Mt (Mycobacterium tuberculosis, UniProt O07752)
T2 construct: gene glnA3
T2 sequence (O07752 1-450): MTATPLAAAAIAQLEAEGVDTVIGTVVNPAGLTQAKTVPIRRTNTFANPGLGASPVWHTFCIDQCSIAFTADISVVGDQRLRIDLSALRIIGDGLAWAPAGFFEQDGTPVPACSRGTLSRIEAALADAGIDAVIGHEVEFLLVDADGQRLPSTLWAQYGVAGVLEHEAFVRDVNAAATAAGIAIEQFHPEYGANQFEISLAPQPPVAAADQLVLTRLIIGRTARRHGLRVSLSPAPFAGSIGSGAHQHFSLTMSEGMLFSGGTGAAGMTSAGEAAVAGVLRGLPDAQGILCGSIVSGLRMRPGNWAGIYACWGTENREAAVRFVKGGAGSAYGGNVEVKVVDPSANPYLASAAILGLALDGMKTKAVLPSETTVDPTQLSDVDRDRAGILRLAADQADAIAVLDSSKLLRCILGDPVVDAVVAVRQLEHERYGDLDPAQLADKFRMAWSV

T1 sequence (Q9KZC7 whole entry): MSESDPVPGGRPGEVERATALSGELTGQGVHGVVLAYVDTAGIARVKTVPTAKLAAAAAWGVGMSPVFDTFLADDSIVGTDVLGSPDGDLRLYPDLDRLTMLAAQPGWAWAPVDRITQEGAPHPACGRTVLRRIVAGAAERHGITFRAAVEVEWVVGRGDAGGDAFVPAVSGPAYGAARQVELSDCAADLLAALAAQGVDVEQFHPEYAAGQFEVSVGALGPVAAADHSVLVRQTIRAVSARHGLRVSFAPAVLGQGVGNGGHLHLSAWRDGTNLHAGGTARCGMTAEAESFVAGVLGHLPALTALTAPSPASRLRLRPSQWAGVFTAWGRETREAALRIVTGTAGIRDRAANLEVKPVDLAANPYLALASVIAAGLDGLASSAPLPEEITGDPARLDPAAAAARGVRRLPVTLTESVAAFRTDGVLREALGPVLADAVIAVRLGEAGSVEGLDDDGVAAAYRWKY

| Structure (SMILES) | GS activity assay, phosphate release (GlnA3Sc) | GS activity assay, phosphate release; HPLC/ESI-MS of gamma-glutamylspermidine (GlnA3Mt) |
| --- | --- | --- |
| NCCCCNCCCN [spermidine] | possesses the highest turnover rate when using spermine or spermidine as substrates | the highest activity was observed with spermine and spermidine |
| NCCCNCCCCNCCCN [spermine] | possesses the highest turnover rate when using spermine or spermidine as substrates |  |
